Source: PMC3600082 (Journal of medicinal chemistry, 2013)
Entries after “also recorded” stand apart in the source; their conditions may differ.

Key:
[1] = test system: Gag CA-SP1 cleavage in NL4-3/V370A; assay: Anti-HIV-1 maturation assay; assay type: cell-based; details: virus produced by 293T cells in presence of compound; Western blot
[2] = test system: HIV-1 NL4-3 Env-mediated cell-cell fusion; assay: Fusion assay; assay type: cell-based; details: COS cells expressing Env mixed with TZM-bl cells; luciferase
[3] = test system: Gag CA-SP1 cleavage in wild type NL4-3; details: virus produced by 293T cells in presence of compound; Western blot
[4] = test system: BVM-R HIV-1 variants (V370Δ, V370A, V362I, T371Δ); assay: Multi-cycle viral replication in MT4 cell assay, panel of BVM-R variants; assay type: cell-based; details: for sensitivity of BVM-R viruses to the compound: BVM-R variants
[5] = test system: Gag CA-SP1 cleavage in NL4-3/V362I; assay: Anti-HIV-1 maturation assay; assay type: cell-based; details: virus produced by 293T cells in presence of compound; Western blot
NL4-3/V370A = assay: Multi-cycle viral replication in MT4 cell assay; assay type: cell-based, HIV-1; details: relative to compound 1
HIV-1 NL4-3 = details: relative to compound 1; cited from earlier work

C=C(C)[C@@H]1CC[C@]2(C(=O)O)CC[C@]3(C)[C@H](CC[C@@H]4[C@@]5(C)CC[C@H](OC(=O)CC(C)(C)C(=O)O)C(C)(C)[C@@H]5CC[C@]43C)[C@@H]12 [Compound 1, 3-O-(3’,3’-dimethylsuccinyl)-betulinic acid]
inhibition of Gag CA-SP1 cleavage (p25 accumulation), NL4-3/V370A [1]: did not inhibit the cleavage of Gag CA-SP1 | inhibition of HIV-1 entry / Env-mediated cell-cell fusion [2]: do not inhibit HIV-1 entry | inhibition of Gag CA-SP1 cleavage (p25 accumulation), wild type NL4-3 [3]: interfered with the cleavage of Gag CA-SP1 | sensitivity of BVM-R viruses to the compound [4]: not sensitive

C=C(C)[C@@H]1CC[C@]2(C(=O)NCCCCCCCCC(=O)N[C@@H](CCC(N)=O)C(=O)OC)CC[C@]3(C)[C@H](CC[C@@H]4[C@@]5(C)CC[C@H](OC(=O)CC(C)(C)C(=O)O)C(C)(C)[C@@H]5CC[C@]43C)[C@@H]12 [Compound 6, Methyl N-[N’-[3β-O-(3’,3’-dimethylsuccinyl)-betulinic acid-28-oyl]-9-aminononanoyl]-L-glutaminate]
inhibition of Gag CA-SP1 cleavage (p25 accumulation), NL4-3/V370A [1]: resulted in accumulation of CA-SP1 (p25) | inhibition of HIV-1 entry / Env-mediated cell-cell fusion [2]: do not inhibit HIV-1 entry; also recorded: did not inhibit | inhibition of Gag CA-SP1 cleavage (p25 accumulation), NL4-3/V362I [5]: accumulation of p25 was even more pronounced | fold more potent than 1 against the replication of NL4-3/V370A (NL4-3/V370A): at least 20 fold | sensitivity of BVM-R viruses to the compound [4]: sensitive | fold more potent than 1 against four BVM-R viruses ([4]; relative to compound 1): at least 20 fold

C=C(C)[C@@H]1CC[C@]2(C(=O)N3CCN(CCCCC(=O)O)CC3)CC[C@]3(C)[C@H](CC[C@@H]4[C@@]5(C)CC[C@H](OC(=O)CC(C)(C)C(=O)O)C(C)(C)[C@@H]5CC[C@]43C)[C@@H]12 [Compound 30, N-[3β-O-(3′,3′-dimethylsuccinyl)lup-20(29)-en-28-oyl]-5-piperazinepentanoic acid]
increase in anti-HIV-1 maturation activity (HIV-1 NL4-3): greater than 10 fold | sensitivity of BVM-R viruses to the compound [4]: ineffective; also recorded: not effective
